Converted amounts (≈) assume the structure as drawn. Like-named read-outs stand apart in the source and are kept apart here.
What was measured:
[1] = system: P. vulgaris 6896; test: In vitro antibacterial activity, MIC by agar dilution; assay type: cell-based; details: Proteus vulgaris, Wellcotest Sensitivity Test Agar, 5% hemolyzed horse blood, 18 hours at 35° C.
Experimental: (§1) A stock solution or suspension of the test compound at a concentration of 2500 μg/ml. is prepared utilizing a suitable solvent or medium such as aqueous sodium hydroxide, aqueous lactic acid, methyl cellosolve, dimethylsulfoxide, dimethylacetamide, ethylene glycol, dimethylformamide, formamide, propylene glycol, acetone or methanol. Two-fold dilutions are made by adding appropriate amounts of sterile water to the solution or suspension of the test substance. One ml. quantities of each dilution are incorporated into Wellcotest Sensitivity Test Agar fortified with 5% hemolyzed horse blood (9 ml. vol.) in sterile Petri dishes to give plates containing varying concentrations of the test compound. The hardened surfaces of each plate are incubated with the test organism, and the plates are incubated for 18 hours at 35° C.

[2] = system: E. coli 9637; test: as above; assay type: cell-based; details: read-out: MIC, E. coli 9637
Experimental: as §1

[3] = system: S. aureus Smith; test: as above; assay type: cell-based; details: Staphylococcus aureus; Wellcotest Sensitivity Test Agar, 5% hemolyzed horse blood, 18 hours at 35° C.
Experimental: as §1

[4] = system: S. aureus 53-180; test: as above; assay type: cell-based; details: Staphylococcus aureus, 53180; Wellcotest Sensitivity Test Agar, 5% hemolyzed horse blood, 18 hours at 35° C.
Experimental: as §1

[5] = system: S. paratyphi 11737; test: as above; assay type: cell-based; details: Salmonella enterica, read-out: MIC, S. paratyphi 11737
Experimental: as §1

[6] = system: K. pneumoniae 10031; test: as above; assay type: cell-based; details: read-out: MIC, K. pneumoniae 10031
Experimental: as §1

[7] = system: Plasmodium berghei KBG 173; test: Blood schizonticidal antimalarial test in mice infected with Plasmodium berghei; details: for ED100 / minimal effective dose: Plasmodium berghei, in Mus musculus, sc; for ED100: read-out: Lowest Dose Curing All Mice; for minimal effective dose: read-out: Min. Curing Dose; for ΔMST (increase in mean survival time of treated animals to untreated controls): s.c.
Experimental: (§2) Test animals weigh from 18 to 22 grams but weight variations in any given experimental or control group are confined to 2-3 grams. All animals in any given test are approximately of the same age. Animals on test are housed in metal-topped plastic cages, given a standard laboratory diet and water ad libitum.
(§3) Test animals receive an intraperitoneal injection of 0.5 ml. of 1:100 dilution of heparinized heart's blood with a minimum of 90% parasitized cells (4×10^7 cells), drawn from donor mice infected one week earlier with Plasmodium berghei. The donor strain is maintained by weekly passages in separate groups of mice inoculated with a 0.5 ml. of 1:500 dilution of heparinized heart's blood.
(§4) Test compounds are administered after dissolution or suspension in peanut oil. A single dose is given subcutaneously 72 hours after the mice are infected with Plasmodium berghei. […] Since treatment is withheld for three days to permit the infection to become well established and death occurs in untreated controls within 6-8 days, it is felt that this system presents a candidate compound with the maximum challenge. In order to check factors such as changes in the infectivity of Plasmodium berghei or in the susceptibility of the host or to detect technical errors, a group of infected animals treated with pyrimethamine at dose levels producing definite increases in survival time is included in a positive control in every experiment.
(§5) In each experiment test compounds are administered in graded dosages. […] Deaths prior to the sixth day, when untreated controls begin to die, are regarded as nonparasitic and become the basis for toxicity evaluations. Treated animals are kept under observation for 60 days. Survivors at the end of this period of time are considered as cured. In calculating mean survival time, toxic deaths and 60-day survivors are not included.

[8] = as above; details: mouse, in vivo, sc
Experimental: as §2, §3, §4, §5

[9] = system: N. catarrhalis 8193; test: In vitro antibacterial activity, MIC by agar dilution; assay type: cell-based; details: Wellcotest Sensitivity Test Agar, 5% hemolyzed horse blood, 18 hours at 35° C.
Experimental: as §1

[10] = Wellcotest Sensitivity Test Agar, 5% hemolyzed horse blood, 18 hours at 35° C.
[11] = Escherichia coli, 9637, Wellcotest Sensitivity Test Agar, 5% hemolyzed horse blood, 18 hours at 35° C.
[12] = Klebsiella pneumoniae, 10031, Wellcotest Sensitivity Test Agar, 5% hemolyzed horse blood, 18 hours at 35° C.

Structure (SMILES) | MIC [1] [µg/mL] | MIC ([2]; Escherichia coli, 9637, 18 h) [µg/mL] | MIC [3] [µg/mL] | MIC [4] [µg/mL] | MIC [5, 10] [µg/mL] | MIC ([6]; Klebsiella pneumoniae, 10031, 18 h) [µg/mL] | ED100 ([7]; 1440 h) [mg/kg] | minimal effective dose ([7]; 1440 h) [mg/kg] | ΔMST (increase in mean survival time of treated animals to untreated controls) ([7]; dose 5 mg. per kg.) | MTD at 1440 h [8] [mg/kg] | MIC [9] [µg/mL] | MIC [2, 11] [µg/mL] | MIC [6, 12] [µg/mL] | ΔMST (increase in mean survival time of treated animals to untreated controls) ([7]; dose 160 mg. per kg.) | ΔMST (increase in mean survival time of treated animals to untreated controls) ([7]; dose 10 mg. per kg.) | MIC ([5]; 18 h) [µg/mL] | ED100 ([7]; 336 h) [mg/kg] | minimal effective dose ([7]; 336 h) [mg/kg] | ΔMST (increase in mean survival time of treated animals to untreated controls) ([7]; dose 20 mg. per kg.)
Cc1ccc(C)c(S(=O)(=O)n2ccc3c4c(N)nc(N)nc4ccc32)c1 [Example 2, 7-[(2,5-Dimethylphenyl)Sulfonyl]-7H-Pyrrolo-[3,2-f]Quinazoline-1,3-Diamine] | 62.5 (≈ 170 µM) | 31.3 (≈ 85.2 µM) | 7.81 (≈ 21.3 µM) | 0.976 (≈ 2.66 µM) | 31.3 (≈ 85.2 µM) | 31.3 (≈ 85.2 µM) | 40 | 20 | 6.6 | 160 | – | – | – | – | – | – | – | – | –
Nc1nc(N)c2c(ccc3c2ccn3S(=O)(=O)c2ccc([N+](=O)[O-])cc2)n1 [Example 3] | > 250 | – | 7.81 (≈ 20.3 µM) | 3.9 (≈ 10.1 µM) | > 250 | – | – | 640 | – | – | 0.12 (≈ 0.312 µM) | 7.81 (≈ 20.3 µM) | 3.9 (≈ 10.1 µM) | 8.4 | – | – | – | – | –
Nc1nc(N)c2c(ccc3c2ccn3S(=O)(=O)c2ccc3ccccc3c2)n1 [Example 4] | > 250 | – | 250 (≈ 642 µM) | 250 (≈ 642 µM) | > 250 | – | – | 20 | – | – | 15.6 (≈ 40.1 µM) | > 250 | > 250 | – | 11.4 | – | – | – | –
Cc1ccc(S(=O)(=O)n2ccc3c4c(N)nc(N)nc4ccc32)cc1 [Example 5] | > 250 | – | 125 (≈ 354 µM) | 62.5 (≈ 177 µM) | > 250 | – | 80 | 20 | – | 640 | 1.95 (≈ 5.52 µM) | > 250 | 15.6 (≈ 44.1 µM) | – | 5.8 | – | – | – | –
COc1ccc(S(=O)(=O)n2ccc3c4c(N)nc(N)nc4ccc32)cc1 [Example 6] | > 250 | – | 15.6 (≈ 42.2 µM) | 7.81 (≈ 21.1 µM) | > 250 | – | 160 | 40 | – | 640 | 0.122 (≈ 0.33 µM) | > 250 | 3.9 (≈ 10.6 µM) | – | – | – | – | – | –
Nc1nc(N)c2c(ccc3c2ccn3S(=O)(=O)c2ccc(Cl)c(Cl)c2)n1 [Example 7] | > 250 | – | 31.3 (≈ 76.7 µM) | 3.9 (≈ 9.55 µM) | – | – | – | – | – | 640 | 0.122 (≈ 0.299 µM) | > 250 | 3.13 (≈ 7.67 µM) | – | – | > 250 | 10 | 1.25 | –
Nc1nc(N)c2c(ccc3c2ccn3S(=O)(=O)c2ccc(Cl)cc2)n1 [Example 8] | > 250 | – | 62.5 (≈ 167 µM) | 15.6 (≈ 41.7 µM) | > 250 | – | – | – | – | 160 | 0.244 (≈ 0.653 µM) | > 250 | 7.81 (≈ 20.9 µM) | – | – | – | 40 | 40 | –
Nc1nc(N)c2c(ccc3c2ccn3S(=O)(=O)c2cccc(C(F)(F)F)c2)n1 [Example 9] | > 250 | – | 3.9 (≈ 9.57 µM) | 0.976 (≈ 2.4 µM) | > 250 | – | 40 | 10 | 6.6 | 160 | – | > 250 | 3.9 (≈ 9.57 µM) | – | – | – | – | – | –
Nc1nc(N)c2c(ccc3c2ccn3S(=O)(=O)c2ccccc2)n1 [Example 10] | 125 (≈ 368 µM) | – | 1.95 (≈ 5.75 µM) | 0.976 (≈ 2.88 µM) | 15.6 (≈ 46 µM) | – | – | 40 | – | – | – | 3.9 (≈ 11.5 µM) | 0.488 (≈ 1.44 µM) | – | – | – | – | – | 7.2
CC(=O)Nc1ccc(S(=O)(=O)n2ccc3c4c(N)nc(N)nc4ccc32)cc1 [Example 11] | > 250 | – | 31.3 (≈ 79 µM) | 31.3 (≈ 79 µM) | > 250 | – | 20 | 10 | 9.3 | 320 | – | > 250 | 7.81 (≈ 19.7 µM) | – | – | – | – | – | –
CC(C)(C)c1ccc(S(=O)(=O)n2ccc3c4c(N)nc(N)nc4ccc32)cc1 [Example 12] | > 250 | – | 7.81 (≈ 19.7 µM) | 3.9 (≈ 9.86 µM) | > 250 | – | 40 | 20 | – | 640 | – | 250 (≈ 632 µM) | 1.95 (≈ 4.93 µM) | – | 6.5 | – | – | – | –

Reference: US4288595A, “7-(Substituted)-7H-pyrrolo[3,2-f]quinazoline-1,3-diamines” (priority 1980, dated 1981)
